The source made the active and inactive calls. No cut-off for these calls is given here.
Key:
[1] = biological target: T1, NAD-dependent protein deacetylase sirtuin-2 (Homo sapiens, UniProt Q8IXJ6); experiment: Inhibition of human Sirt2 (56 to 356 residues) deacetylation expressed in Escherichia coli BL21 (DE3) using ZMAL as substrate incubated for 4 hrs in presence of NAD+ by fluorescence based microplate reader assay
T1 sequence (Q8IXJ6 whole entry): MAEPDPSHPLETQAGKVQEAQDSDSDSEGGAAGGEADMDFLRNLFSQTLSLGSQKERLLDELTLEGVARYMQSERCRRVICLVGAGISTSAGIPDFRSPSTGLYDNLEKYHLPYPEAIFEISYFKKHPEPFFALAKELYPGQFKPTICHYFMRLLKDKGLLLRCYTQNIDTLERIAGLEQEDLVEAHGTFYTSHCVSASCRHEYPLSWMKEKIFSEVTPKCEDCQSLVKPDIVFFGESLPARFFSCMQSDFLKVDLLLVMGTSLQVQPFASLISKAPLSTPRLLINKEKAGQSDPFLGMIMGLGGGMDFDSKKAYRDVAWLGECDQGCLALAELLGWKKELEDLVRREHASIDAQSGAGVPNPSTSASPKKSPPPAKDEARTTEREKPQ

[2] = biological target: T1, NAD-dependent protein deacetylase sirtuin-2; experiment: Inhibition of human Sirt2 (56 to 356 residues) demyristoylation expressed in Escherichia coli BL21 (DE3) using ZMML as substrate incubated for 4 hrs in presence of NAD+ by fluorescence based microplate reader assay
[3] = biological target: T2, NAD-dependent protein deacetylase sirtuin-2 (Homo sapiens) (UniProt Q8IXJ6); experiment: Induction of human Sirt2 stabilization (56 to 356 residues) expressed in Escherichia coli BL21 (DE3) assessed as change in melting temperature at 25 uM in presence of NAD+ by differential scanning fluorimetry analysis
T2 sequence (whole entry): T1 sequence (Q8IXJ6 whole entry)

HeLa = experiment: Cytotoxicity against human HeLa cells at 1 to 25 uM incubated for 72 hrs by MTS assay; type: functional, cell-based; conditions: dose 1-25 µM
[4] = biological target: T2, NAD-dependent protein deacetylase sirtuin-2 (Homo sapiens); conditions: PC-3M-luc, dose 20.0 µM, time 6.0 hrs
PC-3M-luc = conditions: Homo sapiens, dose 10-20 µM, time 3.0 day
[5] = biological target: T1, NAD-dependent protein deacetylase sirtuin-2; experiment: Inhibition of recombinant human C-terminal His-tagged Sirt2 (50 to 356 residues) expressed in Escherichia coli using QPKKac as substrate
[6] = biological target: T1, NAD-dependent protein deacetylase sirtuin-2; experiment: Inhibition of recombinant human C-terminal His-tagged Sirt2 (50 to 356 residues) expressed in Escherichia coli using r ETDKmyr as substrate
[7] = Inhibition of schistosoma mansoni Sirt2 (21 to 322 residues) deacetylation expressed in Escherichia coli BL21 (DE3) using ZMAL as substrate incubated for 1 hr in presence of NAD+ by fluorescence based microplate reader assay

Compound: Cc1c(F)cccc1CN1CCCC(Cc2nc(-c3ccc(NC(=O)c4ccc(Cl)s4)cc3)no2)C1 (stereo unspecified)
- IC50 [1]: 0.67 µM

Compound: Cc1c(F)cccc1CN1CCCC(Cc2nc(-c3ccc(NC(=O)NCc4ccccc4)cc3)no2)C1 (stereo unspecified)
- IC50 [1]: 1.07 µM
- IC50 [2]: 10.2 µM

Compound: COc1cccc(C(=O)Nc2ccc(-c3noc(CC4CCCN(Cc5cccc(F)c5C)C4)n3)cc2)c1 (stereo unspecified)
- IC50 [1]: 0.88 µM
- IC50 [2]: 22.3 µM

Compound: Cc1c(F)cccc1CN1CCCC(Cc2nc(-c3ccc(N)cc3)no2)C1 (stereo unspecified)
- IC50 [1]: 17.8 µM
- IC50 [2]: 22.2 µM
- Activity [3]: inactive
- Activity (HeLa): inactive
- inhibition [4]: inactive
- inhibition (PC-3M-luc): inactive

Compound: COc1ccc(CC(=O)Nc2ccc(-c3noc(CC4CCCN(Cc5cccc(F)c5C)C4)n3)cc2)cc1 (stereo unspecified)
- IC50 [1]: 1.1 µM
- IC50 [2]: 27.7 µM

Compound: Cc1c(F)cccc1CN1CCCC(Cc2nc(-c3ccc(NC(=O)Nc4ccccc4)cc3)no2)C1 (stereo unspecified)
- IC50 [1]: 0.21 µM
- IC50 [2]: 20.1 µM

Compound: COc1ccc(NC(=O)Nc2ccc(-c3noc(CC4CCCN(Cc5cccc(F)c5C)C4)n3)cc2)cc1 (stereo unspecified)
- IC50 [1]: 0.62 µM
- IC50 [2]: 25 µM

Compound: CCCCCCCCCCCCNC(=S)NCCCC[C@H](NS(C)(=O)=O)C(=O)N[C@@H](C)C(=O)N[C@@H](CCCNC(=N)N)C(N)=O
- IC50 [5]: 0.04 µM
- IC50 [6]: 0.17 µM

Compound: COc1ccc(C(=O)Nc2ccc(-c3noc(CC4CCCN(Cc5cccc(F)c5C)C4)n3)cc2)cc1 (stereo unspecified)
- IC50 [1]: 0.43 µM
- IC50 [2]: 12.6 µM

Compound: Cc1c(F)cccc1CN1CCCC(Cc2nc(-c3ccc(NC(=S)NCc4ccccc4)cc3)no2)C1 (stereo unspecified)
- IC50 [1]: 0.64 µM
- IC50 [2]: 6.65 µM
- inhibition [4]: Active

Compound: Cc1cc(C)nc(SCC(=O)Nc2ncc(Cc3cccc(OCc4cn(Cc5ccc(OCCN6CCOCC6)cc5)nn4)c3)s2)n1
- IC50 [2]: 2.4 µM
- inhibition [4]: Active
- inhibition (PC-3M-luc): Active

Compound: CC(=O)Nc1ccc(-c2noc(CC3CCCN(Cc4cccc(F)c4C)C3)n2)cc1 (stereo unspecified)
- IC50 [2]: 11 µM
- IC50 [7]: 14 µM

Compound: Cc1c(F)cccc1CN1CCCC(Cc2nc(-c3ccc(NC(=S)Nc4ccccc4)cc3)no2)C1 (stereo unspecified)
- IC50 [1]: 0.9 µM
- IC50 [2]: 6.2 µM
